{"source": "patent US5574178A", "about": "“4,6-Di-t-butyl-dihydrobenzofuran-5-ol and its derivatives” (Chugai Seiyaku Kabushiki Kaisha, priority 1992, dated 1996)", "type_in_all_cases": "biochemical", "key": {"[1]": {"tested_on": "lactoperoxidase reaction system (singlet oxygen)", "assay": "Lactoperoxidase system (singlet oxygen system)", "conditions": "pH 4.5, 37° C.", "protocol": "The test compounds were evaluated under the following conditions for their effect against a lactoperoxidase reaction system.\nLactoperoxidase 10 μg/ml\nAcetate buffer solution (pH 4.5)\nA reaction solution was prepared by mixing hydrogen peroxide, sodium bromide and luminol in the acetate buffer solution and stored in ice until use. After warming the reaction solution at 37° C. for about 10 min, the reaction was started by addition of the lactoperoxidase solution. A measurement was started right after the addition of lactoperoxidase and subsequent stirring; chemiluminescence intensity was measured right after the start of the reaction. In the experimental model, luminol-dependent chemiluminescence induced by singlet oxygen generated by enzymatic reaction of lactoperoxidase was detected, thus enabling the measurement of the reactivity with singlet oxygen."}, "[2]": {"tested_on": "xanthine oxidase (XOD)-hypoxanthine (HX) system (superoxide)", "assay": "Xanthine oxidase system (superoxide generating system)", "conditions": "pH 7.4, 37° C.", "protocol": "The test compounds were evaluated under the following conditions for their effect in a reaction due to a xanthine oxidase (XOD)-hypoxanthine (HX) system in aqueous solution.\nXanthine oxidase 0.1 U/ml\nHepes buffer solution (pH 7.4)\nA reaction solution was prepared by mixing hypoxanthine and luminol in the Hepes buffer solution and stored in ice until use. After warming the reaction solution at 37° C. for about 10 min, the reaction was started by addition of the xanthine oxidase solution. A measurement was started right after the addition of xanthine oxidase and subsequent stirring; chemiluminescence intensity was normally measured right after the start of the reaction. In the experimental model, luminol-dependent chemiluminescence induced by superoxide generated by enzymatic reaction of xanthine oxidase was detected, thus enabling the measurement of the reactivity with superoxide."}, "[3]": {"target": "lipid peroxidation due to the autoxidation of linoleic acid", "assay": "Linoleic acid-MCLA system, Test Case 4", "conditions": "linoleic acid 10 mM, MCLA 2 μM, 1-butanol, 37° C.; read-out: 50% inhibition concentration", "protocol": "The test compounds were evaluated for their inhibitory effect against lipid peroxidation due to the autoxidation of linoleic acid.\nA reaction solution was prepared by mixing linoleic acid and MCLA (2-methyl-6-(p-methoxyphenyl)-3,7-dihydroimidazo[1,2-a]pyrazin-3-one) in 1-butanol and stored in ice until use. An amount of this reaction solution was sampled in a chemiluminescence measuring cell and, immediately thereafter, the intensity of chemiluminescence due to the autoxidation of linoleic acid was measured at 37° C. in a thermostatic bath. A normal chemiluminescence intensity measurement was conducted about 2-4 min later when the chemiluminescence substantially peaked."}, "Rabbit LDL": {"tested_on": "Rabbit LDL", "assay": "Amount of TBARS (Cu^2+-induced oxidation of rabbit LDL)", "conditions": "5 μM Cu^2+", "protocol": "Rabbit LDL was prepared in accordance with the method of Havel et al. [Havel, R. J. et al., J. Clin. Invest., 34, (1955)]. After adding 5 μM of Cu^2+, the mixture was warmed until a thiobarbituric acid reactive substance (TBARS) was produced. The test compounds were evaluated for their anti-oxidative action with the amount of TBARS being used as an index. [formula]"}}}
{"smiles": "CC1Cc2c(ccc(O)c2C(C)(C)C)O1", "note": "(stereo not drawn) [Comparison 2, reference compound]", "values": [{"measurement": "Chemiluminescence intensity (% of control)", "setting": "[1]; at 20 μM of compound", "value": "82.1 % of control"}, {"measurement": "Chemiluminescence intensity (% of control)", "setting": "[1]; at 200 μM of compound", "value": "15.1 % of control"}, {"measurement": "Chemiluminescence intensity (% of control)", "setting": "[2]; at 20 μM of compound", "value": "32.7 % of control"}, {"measurement": "Chemiluminescence intensity (% of control)", "setting": "[2]; at 200 μM of compound", "value": "3.2 % of control"}, {"measurement": "IC50", "setting": "[3]", "value": 54, "unit": "µM"}]}
{"smiles": "CC(C)(C)c1cc(O)c(C(C)(C)C)c2c1OCC2", "note": "[Comparison 5, reference compound]", "values": [{"measurement": "Chemiluminescence intensity (% of control)", "setting": "[1]; at 20 μM of compound", "value": "95.3 % of control"}, {"measurement": "Chemiluminescence intensity (% of control)", "setting": "[1]; at 200 μM of compound", "value": "4.5 % of control"}, {"measurement": "Chemiluminescence intensity (% of control)", "setting": "[2]; at 20 μM of compound", "value": "21.9 % of control"}, {"measurement": "Chemiluminescence intensity (% of control)", "setting": "[2]; at 200 μM of compound", "value": "8.2 % of control"}, {"measurement": "IC50", "setting": "[3]", "value": 41, "unit": "µM"}]}
{"smiles": "CC1Cc2c(c(C(C)(C)C)cc(O)c2C(C)(C)C)O1", "note": "(stereo not drawn) [Comparison 6, reference compound]", "values": [{"measurement": "Chemiluminescence intensity (% of control)", "setting": "[1]; at 20 μM of compound", "value": "105.8 % of control"}, {"measurement": "Chemiluminescence intensity (% of control)", "setting": "[1]; at 200 μM of compound", "value": "8.1 % of control"}, {"measurement": "Chemiluminescence intensity (% of control)", "setting": "[2]; at 20 μM of compound", "value": "31.9 % of control"}, {"measurement": "Chemiluminescence intensity (% of control)", "setting": "[2]; at 200 μM of compound", "value": "24.0 % of control"}, {"measurement": "IC50", "setting": "[3]", "value": 19, "unit": "µM"}]}
{"smiles": "CCC(C)c1cc2c(c(C(C)(C)C)c1O)CCO2", "note": "(stereo not drawn) [Comparison 7, reference compound]", "values": [{"measurement": "Chemiluminescence intensity (% of control)", "setting": "[1]; at 20 μM of compound", "value": "86.2 % of control"}, {"measurement": "Chemiluminescence intensity (% of control)", "setting": "[1]; at 200 μM of compound", "value": "0.8 % of control"}, {"measurement": "Chemiluminescence intensity (% of control)", "setting": "[2]; at 20 μM of compound", "value": "55.8 % of control"}, {"measurement": "Chemiluminescence intensity (% of control)", "setting": "[2]; at 200 μM of compound", "value": "17.5 % of control"}, {"measurement": "IC50", "setting": "[3]", "value": 7, "unit": "µM"}]}
{"smiles": "CC(C)(C)c1cc2c(c(C(C)(C)C)c1O)CCO2", "note": "[Compound a, 4,6-Di-tert-Butyl-5-Hydroxy-2,3-Dihydrobenzofuran]", "values": [{"measurement": "Chemiluminescence intensity (% of control)", "setting": "[1]; at 20 μM of compound", "value": "94.5 % of control"}, {"measurement": "Chemiluminescence intensity (% of control)", "setting": "[1]; at 200 μM of compound", "value": "56.6 % of control"}, {"measurement": "Chemiluminescence intensity (% of control)", "setting": "[2]; at 20 μM of compound", "value": "41.8 % of control"}, {"measurement": "Chemiluminescence intensity (% of control)", "setting": "[2]; at 200 μM of compound", "value": "26.1 % of control"}, {"measurement": "TBARS produced (%)", "setting": "Rabbit LDL; at 10^-5 M of compound, 10 µM", "value": 10.3, "unit": "%"}, {"measurement": "TBARS produced (%)", "setting": "Rabbit LDL; at 10^-6 M of compound, 1 µM", "value": 52.2, "unit": "%"}, {"measurement": "IC50", "setting": "[3]", "value": 7, "unit": "µM"}]}
